Experimental data from publication PMC6348443 (Journal of Medicinal Chemistry, 2018).
Entries after “also recorded” stand apart in the source; their conditions may differ. Where a name gives a salt, the structure may show the parent alone. Read-outs that look alike come from different tables or passages of the source.

How the values were obtained:
[1] = test system: peripheral opioid receptors; test: antagonism by naloxone methiodide in the acetic acid-induced writhing assay; assay type: in vivo, mouse; settings: sc co-administration with naloxone methiodide 1 mg/kg; agonist 50 or 200 μg/kg sc; 30 min
Text: To determine whether targeted 6-amino acid and 6-dipeptide analogues inhibit writhing behavior in mice through peripheral opioid receptors activation, we used naloxone methiodide.[27]
Values are shown as mean of writhes ± SEM (n = 6–7 mice per group). ***P < 0.001 vs control group; ^#P < 0.05, ^##P < 0.01 and ^###P < 0.001 vs agonist treated group, ANOVA with Tukey’s post hoc test.
Writhing was induced in male CD1 mice by ip injection of a 0.6% acetic acid aqueous solution as described previously.[48],[62] Groups of mice were administered sc different doses of test compound or saline (control), and 5 min prior to testing (25 min after drug or saline), each animal received an ip injection of acetic acid solution. Each mouse was placed in individual transparent Plexiglas chambers, and the number of writhes was counted during a 10 min observation period. […] For the antagonism study, naloxone methiodide was sc co-administered with the respective opioid agonist, and writhing was assessed as described above.

[2] = test system: male CD1 mice; test: acetic acid-induced writhing assay after sc administration; assay type: in vivo, mouse; settings: for ED50: Mus musculus, 0.5 h, read-out: ED50 (95% CI), mice, sc, inhibition of writhing 30 min after drug administration
[3] = biological target: T1, KOR (Homo sapiens, UniProt P41145); test: [35S]GTPγS binding assay, CHO-hKOR membranes; assay type: biochemical; settings: for EC50: [35S]GTPγS, CHO human KOR membranes, read-out: KOR EC50; for Emax: relative to reference full agonist U69,593, read-out: KOR % stim.; for functional profile at KOR (full/partial agonist): partial agonist <85% of the response to U69,593
T1 construct: host or cells: CHO (CHO-hKOR)

[4] = biological target: T2, MOR (Homo sapiens, UniProt P35372); test: [35S]GTPγS binding assay, CHO-hMOR membranes; assay type: biochemical; settings: for Emax: relative to reference full agonist DAMGO, read-out: MOR % stim.; for functional profile at MOR (full/partial agonist): full agonist ≥85% of the response to DAMGO
T2 construct: host or cells: CHO (CHO-hMOR)

[5] = biological target: T3, DOR (Homo sapiens, UniProt P41143); test: [35S]GTPγS binding assay, CHO-hDOR membranes; assay type: biochemical; settings: for EC50: [35S]GTPγS, CHO human DOR membranes; for Emax: relative to reference full agonist DPDPE, read-out: DOR % stim.
T3 construct: host or cells: CHO (CHO-hDOR)

[6] = biological target: T4, DOR (Rattus norvegicus, UniProt P33533); test: competition radioligand binding, rat brain membranes, [3H][Ile5,6]deltorphin II; settings: for Ki: rat brain membranes, read-out: opioid receptor binding Ki DOR
T4 construct: Membranes were prepared from Sprague-Dawley rat brains or guinea-pig brains according to the described procedures; tissue Labortierkunde und Laborgenetik, Medizinische Universität Wien; host or cells: Sprague-Dawley rat brain without cerebella

[7] = biological target: T5, MOR (Rattus norvegicus, UniProt P33535); test: competition radioligand binding, rat brain membranes, [3H]DAMGO; settings: for Ki: rat brain membranes, read-out: opioid receptor binding Ki MOR
T5 construct: Membranes were prepared from Sprague-Dawley rat brains or guinea-pig brains according to the described procedures; tissue Labortierkunde und Laborgenetik, Medizinische Universität Wien; host or cells: Sprague-Dawley rat brain without cerebella

[8] = biological target: T6, KOR (Cavia porcellus, UniProt P41144); test: competition radioligand binding, guinea-pig brain membranes, [3H]U69,593; settings: guinea-pig brain membranes; read-out: opioid receptor binding Ki KOR
T6 construct: Membranes were prepared from Sprague-Dawley rat brains or guinea-pig brains according to the described procedures; tissue Labortierkunde und Laborgenetik, Medizinische Universität Wien; host or cells: guinea-pig brain without cerebella

[9] = biological target: T2, MOR; test: competition radioligand binding, CHO cell membranes expressing human MOR, [3H]DAMGO
Description: (§1) Membranes from CHO cells expressing human opioid receptors were prepared in 50 mM Tris-HCl buffer (pH 7.7) according to a previously described procedure.[64] Cells expressing human opioid receptors grown at confluence were removed from the culture plates by scraping, homogenized in 50 mM Tris buffer (pH 7.7), using a Polytron homogenizer, then centrifuged once and washed by an additional centrifugation at 27 000g for 15 min, at 4 °C. The final pellet was resuspended in Tris buffer and stored at −80 °C until use. Protein content of brain and cell membrane preparation homogenates was determined by the method of Bradford using bovine serum albumin as the standard.[65]
(§2) Rat brain membranes were incubated with either [^3H]DAMGO (1 nM, 45 min, 35 °C) or [^3H][Ile^5,6]deltorphin II (0.5 nM, 45 min, 35 °C) for labeling MOR or DOR receptors, respectively. Guinea-pig brain membranes were incubated with [^3H]U69,593 (1 nM, 30 min, 30 °C) for labeling KOR. Binding assays with CHO cell membranes were conducted at 25 °C for 60 min using [^3H]DAMGO (1 nM) or [^3H]diprenorphine (0.2 nM) for labeling MOR or DOR, respectively. Nonspecific binding was determined using 10 μM naloxone (rodent brain) or 1–10 μM of the unlabeled counterpart of each radioligand (CHO cells). Reactions were terminated by rapid filtration through Whatman glass fiber GF/C filters. Filters were washed three times with 5 mL of ice-cold 50 mM Tris-HCl buffer (pH 7.4) using a Brandel M24R cell harvester (Gaithersburg, MD). Radioactivity retained on the filters was counted by liquid scintillation counting using a Beckman Coulter LS6500 (Beckman Coulter Inc., Fullerton, CA). All binding experiments were performed in duplicate and repeated at least three times.
(§3) aDetermined in competition radioligand binding assays using CHO cell membranes expressing
(§4) human MOR and DOR. Values represent the mean ± SEM of three independent experiments each

[10] = biological target: T3, DOR; test: competition radioligand binding, CHO cell membranes expressing human DOR, [3H]diprenorphine
Description: as §1, §2, §3, §4

[11] = [35S]GTPγS, CHO human MOR membranes, read-out: MOR EC50

Row | SMILES | effect of naloxone methiodide on antinociceptive effect [1] | ED50 [2] [mg/kg] | EC50 [3] [nM] | Emax [3] [%] | EC50 [4, 11] [nM] | Emax [4] [%] | EC50 [5] [nM] | Emax [5] [%] | Ki [6] [nM] | Ki [7] [nM] | Ki [8] [nM] | also measured
1 | CO[C@@]12CC[C@H](N[C@@H](CCCCN)C(=O)O)[C@@H]3Oc4c(O)ccc5c4[C@@]31CCN(C)[C@@H]2C5 [Compound 8a, (2S)-6-Amino-2-[(4,5α-epoxy-3-hydroxy-14β-methoxy-17-methylmorphinan-6α-yl)amino]hexanoic Acid Trihydrochloride] | reversed | 0.0206 | 118 ± 26 | 79 ± 13 | 2.25 ± 0.07 | 90 ± 8 | 152 ± 2 | 106 ± 4 | – | – | – | –
2 | CO[C@@]12CC[C@@H](N[C@@H](CCCCN)C(=O)O)[C@@H]3Oc4c(O)ccc5c4[C@@]31CCN(C)[C@@H]2C5 [Compound 8b, (2S)-6-Amino-2-[(4,5α-epoxy-3-hydroxy-14β-methoxy-17-methylmorphinan-6β-yl)amino]hexanoic Acid Trihydrochloride] | antagonized | – | 525 ± 24 | 62 ± 7 | 6.85 ± 1.39 | 90 ± 7 | 45.1 ± 22.7 | 93 ± 8 | 3.34 ± 0.46 | 0.53 ± 0.09 | 33.7 ± 4.1 | –
3 | CO[C@@]12CC[C@@H](N[C@@H](Cc3c[nH]c4ccccc34)C(=O)O)[C@@H]3Oc4c(O)ccc5c4[C@@]31CCN(C)[C@@H]2C5 [Compound 10b, (2S)-2-[(4,5α-Epoxy-3-hydroxy-14β-methoxy-17-methylmorphinan-6β-yl)-amino]-3-(1H-indolo-3yl)propionic Acid Dihydrochloride] | reversed; also recorded: antagonized | 0.0927 | 181 ± 49 | 87 ± 8 | 1.64 ± 0.43 | 101 ± 11 | 2.18 ± 0.72 | 96 ± 5 | – | – | – | functional profile at KOR (full/partial agonist) [3]: full agonists
4 | CO[C@@]12CC[C@@H](N[C@H](Cc3ccccc3)C(=O)O)[C@@H]3Oc4c(O)ccc5c4[C@@]31CCN(C)[C@@H]2C5 [Compound 17b, (2R)-2-[(4,5α-Epoxy-3-hydroxy-14β-methoxy-17-methyl-morphinan-6β-yl)-amino]-3-phenylpropionic Acid Dihydrochloride] | – | 0.25 | 611 ± 350 | 92 ± 10 | 0.68 ± 0.29 | ~80 | 1.71 ± 0.78 | 96 ± 1 | 1.19 ± 0.13 | 1.28 ± 0.38 | 139 ± 23 | functional profile at KOR (full/partial agonist) [3]: full agonists; EC50 [4]: < 1 nM; functional profile at MOR (full/partial agonist) [4]: partial agonist; Ki [9]: 1.84 ± 0.14 nM; Ki [10]: 2.17 ± 0.26 nM; increase in MOR binding affinity vs comparator ([7]; rat brain, 17b vs 4b, 16a/b vs 7a/b, 22a/b vs 7a, 7b and 9b, 14a vs 14b): ca. 2 times
5 | CO[C@@]12CC[C@H](N[C@H](C(=O)O)C3CCCCC3)[C@@H]3Oc4c(O)ccc5c4[C@@]31CCN(C)[C@@H]2C5 [Compound 18a, (2S)-2-[(4,5α-Epoxy-3-hydroxy-14β-methoxy-17-methyl-morphinan-6α-yl)-amino]-2-cyclohexylacetic Acid Dihydrochloride] | reversed | 0.0206 | 250 ± 80 | 52 ± 6 | 2.88 ± 1.21 | 86 ± 8 | 20.5 ± 8 | 101 ± 1 | 14.3 ± 0.09 | 1.23 ± 0.2 | 177 ± 30 | decreased DOR affinity vs 6β analogue ([6]; rat brain, 18a vs 18b, 19a vs 19b): 11 times; Ki ratio MOR/DOR/KOR ([7]; from Ki in rat (MOR, DOR) and guinea-pig (KOR) brain membranes): 1/12/144
6 | CO[C@@]12CC[C@@H](N[C@H](C(=O)O)C3CCCCC3)[C@@H]3Oc4c(O)ccc5c4[C@@]31CCN(C)[C@@H]2C5 [Compound 18b, (2S)-2-[(4,5α-Epoxy-3-hydroxy-14β-methoxy-17-methyl-morphinan-6β-yl)-amino]-2-cyclohexylacetic Acid Dihydrochloride] | antagonized | – | 282 ± 58 | 59 ± 7 | 5.33 ± 0.89 | 86 ± 9 | 3.57 ± 1.63 | 96 ± 10 | 1.3 ± 0.16 | 1.66 ± 1.04 | 118 ± 23 | –
7 | CC[C@H](N[C@@H]1CC[C@@]2(OC)[C@H]3Cc4ccc(O)c5c4[C@@]2(CCN3C)[C@H]1O5)C(=O)O [Compound 19b, (2S)-2-[(4,5α-Epoxy-3-hydroxy-14β-methoxy-17-methylmorphinan-6β-yl)amino]-2-ethylacetic Acid Dihydrochloride] | antagonized | – | 572 ± 18 | 72 ± 0.5 | 5.47 ± 1.18 | ~80 | 2.22 ± 1.64 | 100 ± 3 | 1.3 ± 0.24 | 1.83 ± 0.04 | 201 ± 10 | Ki [9]: 2.1 ± 0.33 nM; increased agonist potency at DOR vs MOR ([5]; [35S]GTPγS EC50): 2–4 times; Ki [10]: 1.99 ± 0.84 nM
8 | CO[C@@]12CC[C@@H](NCC(=O)NCC(=O)O)[C@@H]3Oc4c(O)ccc5c4[C@@]31CCN(C)[C@@H]2C5 [Compound 23a, 2-[2-[(4,5-Epoxy-3-hydroxy-14β-methoxy-17-methylmorphinan-6β-yl)amino]acetylamino]acetic Acid] | antagonized | 0.104 | 885 ± 298 | 75 ± 0.7 | 4.39 ± 0.54 | 85 ± 9 | 2.84 ± 1.63 | 102 ± 7 | – | – | – | higher antinociceptive potency than morphine ([2]; writhing assay, mice): 4 times; functional profile at MOR (full/partial agonist) [4]: full agonist; functional profile at DOR (full/partial agonist) ([5]; full agonist ≥85% of the response to DPDPE): full agonist; lower affinity at MOR vs 2a ([7]; rat brain): about 5 times
